Assays:
MC1R receptors = biological target: T1, MC1R receptors (Mus musculus, UniProt Q01727); experiment: Affinity study on MC1R receptors ([125I]NDP-α-MSH binding); conditions: for Activity relative to the control (percentage of specific binding): [125I]NDP-α-MSH 0.05 nM, 90 minutes at 22° C.; for inhibition at 100 µg/mL / inhibition at 1000 µg/mL: read-out: Inhibition of specific binding by the test products; for displacement of the specific binding of the ligand [125I]NDP-α-MSH: at the test concentrations (0.1 mg/ml and 1 mg/ml)
T1 construct: isolated from cell membranes of mouse melanocytes of the B16/F1 line; endogenous in cells; host or cells: B16/F1 mouse melanocyte (melanoma) cell membranes
T1 sequence (Q01727 whole entry): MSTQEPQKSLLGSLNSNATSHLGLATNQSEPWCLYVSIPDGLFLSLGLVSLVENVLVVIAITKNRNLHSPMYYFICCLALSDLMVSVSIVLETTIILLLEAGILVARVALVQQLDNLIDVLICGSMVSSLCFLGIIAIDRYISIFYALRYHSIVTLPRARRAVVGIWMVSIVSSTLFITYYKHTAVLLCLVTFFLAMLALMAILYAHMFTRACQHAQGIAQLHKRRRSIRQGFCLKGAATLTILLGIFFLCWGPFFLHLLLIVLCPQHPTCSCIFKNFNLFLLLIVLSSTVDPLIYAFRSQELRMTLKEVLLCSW
Protocol: MC1R receptors are isolated from cell membranes of mouse melanocytes of the B16/F1 line via the method described in: Siegrist W., Oestreicher M., Stutz M., Girard J. and […]., 8, 1988, 323-343”. […] Sodium hydroxide has no effect on the parameter studied. The MC1R receptors are incubated, in the presence or absence of these products, with an iodine-125 labeled radioactive ligand, the […]-α-melanocyte […] hormone [^125I]NDP-α-MSH at a concentration of 0.05 nM, for 90 minutes at 22° C. Control cultures are incubated, in the absence of product, and in the presence of the radioactive ligand. Each test is performed in triplicate. After incubation for 90 minutes, the cell membranes are rapidly filtered and the filters are washed several times with cold buffer. The amount of radioactive ligand bound to the MC1R receptors is measured using a scintillation counter (Topcount, Packard). The results given in the table below are the means of the three tests performed for each of the products. They are expressed as a percentage of specific binding relative to the control group and as a percentage of inhibition of this binding.

[1] = system: B16/F1 melanocyte cultures; experiment: Intracellular melanin content in B16/F1 melanocyte cultures; type: cell-based, mouse; conditions: 72 hours; for Intracellular melanin obtained: control 20 ± 4 μg/ml
Protocol: Mouse melanocytes of the B16/F1 line are inoculated in 96-well culture plates at a density of 1500 cells/well. […] The cells are used at 60% of confluence, i.e. 4 days after inoculation. The MCM medium has the following composition: […] N-Undecylenoylphenylalanine is diluted to 4 mg/ml in decinormal aqueous sodium hydroxide solution. It is tested at 40 μg/ml in the MCM medium. Sodium hydroxide has no effect on the parameters analyzed. […] Given its toxicity, it is not tested at 40 μg/ml. […] Control cultures are incubated, in the absence of product, in the MCM medium. These control cultures are prepared on each culture plate. Each test is performed six times. After incubation for 72 hours, a portion of the cell carpet (n=3) is rinsed with phosphate-buffered saline (PBS; pH=7.4), the composition of which is as follows: NaCl: 8 g/l, Na2HPO4: 1.15 g/l; […] The intracellular melanin is quantified by spectrophotometry at 450 nm. A melanin calibration range is prepared in parallel. The results are expressed as μg/ml of intracellular melanin and as a percentage of inhibition relative to the control group.

[2] = system: Pigmented human epidermides (phototype IV); experiment: Intracellular melanin content in reconstructed human epidermides; type: cell-based; conditions: topical, 4 days; for Intracellular melanin: control 347 ± 2 μg/ml
Protocol: Pigmented human epidermides (phototype IV) supplied by Skinethic, of 0.63 cm^2, are reconstructed from a coculture of normal human keratinocytes (skin of the forearm, donor, 2nd passage) and from normal human melanocytes (skin of the forearm, donor of phototype IV, 3rd passage). The keratinocyte/melanocyte ratio is 10:1. The cocultures are inoculated onto inert polycarbonate filters. They are cultured for 10 days in the medium supplied by Skinethic, consisting of MCDB 153 medium supplemented with 5 μg/ml of insulin, 1.5 mM of calcium and growth factors. […] The epidermides are cultured in 6-well plates containing 1 ml of the medium described above. […] The application is performed every day for 4 consecutive days. The incubation medium of the reconstructed epidermides is renewed every day for 4 consecutive days. Control epidermides are treated with a formulation free of active principle. Each test is performed in duplicate. […] Dermatol., 105, 1995, 361-366. The samples are centrifuged for 10 minutes at 10 000 rpm. The extracted intracellular […] measured by spectrophotometry at 500 nm. A melanin calibration range is prepared in parallel. The results are expressed as […] of intracellular melanin and as a percentage of inhibition relative to the control group.

[3] = system: Pigmented human epidermides (phototype IV); experiment: Chromametric measurement of the epidermal pigmentation in reconstructed human epidermides; type: cell-based; conditions: for L* (% of the control group) / a* (% of the control group) / b* (% of the control group) / b* / a* / L*: topical, 4 days; for b*: control 7.54 ± 0.00 AU; for a*: control 10.23 ± 0.51 AU; for L*: control 41.38 ± 0.69 AU
Protocol: Pigmented human epidermides (phototype IV) supplied by Skinethic, of 0.63 cm^2, are reconstructed from a coculture of normal human keratinocytes (skin of the forearm, donor, 2nd passage) and from normal human melanocytes (skin of the forearm, donor of phototype IV, 3rd passage). The keratinocyte/melanocyte ratio is 10:1. The cocultures are inoculated onto inert polycarbonate filters. They are cultured for 10 days in the medium supplied by Skinethic, consisting of MCDB 153 medium supplemented with 5 μg/ml of insulin, 1.5 mM of calcium and growth factors. […] The epidermides are cultured in 6-well plates containing 1 ml of the medium described above. […] The application is performed every day for 4 consecutive days. The incubation medium of the reconstructed epidermides is renewed every day for 4 consecutive days. Control epidermides are treated with a formulation free of active principle. Each test is performed in duplicate. Three days after the final topical application, the color of the epidermides is evaluated using a chromameter (Minolta) by measuring the following parameters L*, a* and b*: • L* is the lightness index. A depigmenting product should increase this parameter; • a* represents the color spectrum from […]. A depigmenting product should reduce this parameter; • b*: represents the color spectrum from […]. A depigmenting product should reduce this parameter. The results are expressed in arbitrary units (AU) of each parameter and as a percentage of the control group.

[4] = Mus musculus, B16-F1, at 40 μg/ml, read-out: Inhibition of intracellular melanin production
[5] = topical application at 1% and 3% (w/v) in an emulsion
[6] = formulated at 3% (w/v), listed as N-undecylenoylphenylalanine

Structure (SMILES) | Activity relative to the control (percentage of specific binding) (MC1R receptors; at 0.1 mg/ml) [%] | inhibition at 100 µg/mL (MC1R receptors; at 0.1 mg/ml) [%] | Activity relative to the control (percentage of specific binding) (MC1R receptors; at 1 mg/ml) [%] | inhibition at 1000 µg/mL (MC1R receptors; at 1 mg/ml) [%] | inhibition at 40 µg/mL [1, 4] [%] | Intracellular melanin obtained ([1]; at 40 μg/ml) [µg/mL] | Intracellular melanin ([2]; formulated at 1% (w/v)) [µg/mL] | Intracellular melanin ([2]; formulated at 3% (w/v)) [µg/mL] | L* (% of the control group) ([3]; formulated at 1% (w/v)) | a* (% of the control group) ([3]; formulated at 1% (w/v)) | b* (% of the control group) ([3]; formulated at 1% (w/v)) | b* ([3]; formulated at 1% (w/v)) [AU] | a* ([3]; formulated at 1% (w/v)) [AU] | L* ([3]; formulated at 1% (w/v)) [AU] | L* (% of the control group) ([3]; formulated at 3% (w/v)) | a* (% of the control group) ([3]; formulated at 3% (w/v)) [%] | b* (% of the control group) ([3]; formulated at 3% (w/v)) | b* ([3]; formulated at 3% (w/v)) [AU] | a* ([3]; formulated at 3% (w/v)) [AU] | L* ([3]; formulated at 3% (w/v)) [AU] | also measured
OC[C@H]1O[C@@H](Oc2ccc(O)cc2)[C@H](O)[C@@H](O)[C@@H]1O [Arbutin, arbutin] | 100.80 ± 0.55 | 0 | 96.30 ± 4.16 | 3.7 | 19 | 16 ± 2 | 242 ± 46 | 263 ± 16 | +2% | −2% | +1% | 7.64 ± 0.19 | 10.02 ± 0.13 | 40.48 ± 0.85 | +1% | −4 | +3% | 7.73 ± 0.34 | 9.86 ± 0.18 | 41.13 ± 0.54 | displacement of the specific binding of the ligand [125I]NDP-α-MSH (MC1R receptors): neither arbutin nor kojic acid, which are the reference depigmenting compounds, displaces the specific binding; effect on the chromametric parameters L*, a* and b* [3, 5]: no significant effect
Oc1ccc(O)cc1 [Hydroquinone, hydroquinone] | – | – | – | – | – | – | – | – | – | – | – | – | – | – | – | – | – | – | – | – | inhibition at 5 µg/mL ([1]; Mus musculus, B16-F1, at 5 μg/ml, read-out: Inhibition of intracellular melanin production): 100%; Intracellular melanin obtained ([1]; at 5 μg/ml): 0.2 ± 0.1 µg/mL; Intracellular melanin ([2]; formulated at 0.1% (w/v)): 317 ± 0 µg/mL; L* (% of the control group) ([3]; formulated at 0.1% (w/v)): −9%; a* (% of the control group) ([3]; formulated at 0.1% (w/v)): 0%; b* (% of the control group) ([3]; formulated at 0.1% (w/v)): +3%; b* ([3]; formulated at 0.1% (w/v)): 7.73 ± 0.03 AU; a* ([3]; formulated at 0.1% (w/v)): 10.19 ± 1.21 AU; L* ([3]; formulated at 0.1% (w/v)): 40.59 ± 2.41 AU; effect on the chromametric parameters L*, a* and b* ([3]; topical application at 0.1% (w/v) in an emulsion): no significant effect
O=c1cc(CO)occ1O [Kojic acid, kojic acid] | – | 0 | – | 0 | 17 | 17 ± 1 | 273 ± 2 | 234 ± 19 | +3% | +7% | +3% | 7.67 ± 0.03 | 10.90 ± 0.51 | 40.11 ± 1.41 | 0% | −8 | −5% | 7.13 ± 0.09 | 9.36 ± 1.02 | 41.69 ± 0.65 | displacement of the specific binding of the ligand [125I]NDP-α-MSH (MC1R receptors): neither arbutin nor kojic acid, which are the reference depigmenting compounds, displaces the specific binding; effect on the chromametric parameters L*, a* and b* [3, 5]: no significant effect
C=CCCCCCCCCC(=O)NC(Cc1ccccc1)C(=O)O (centres unmarked) [N-Undecylenoylphenylalanine, N-(ω-undecylenoyl)phenylalanine] | 57.70 ± 2.38 | 42 | 4.20 ± 0.86 | 96 | 66 | 7 ± 3 | 264 ± 9 | 264 ± 11 | 0% | −12% | −21% | 5.96 ± 0.42 | 9.01 ± 1.33 | 41.34 ± 1.15 | +9% | −14 | −29% | 5.38 ± 0.06 | 8.78 ± 0.52 | 45.228 ± 1.49 | Inhibition of specific binding by the test products (MC1R receptors; at 0.1 mg/ml): 42.3%; Inhibition of specific binding by the test products (MC1R receptors; at 1 mg/ml): 95.8%; Inhibition of the amount of intracellular melanin ([2]; formulated at 3% (w/v)): 24%; Inhibition of the amount of intracellular melanin [2, 6]: 24%; reduction of the a* color parameter ([3]; concentration of 3% (w/v)): 14%; reduction of the b* color parameter ([3]; concentration of 3% (w/v)): 29%; L* (% of the control group) [3, 6]: 9%; inhibition of the b* color parameter ([3]; topical application at 1% (w/v) in an emulsion): 15%

Source: US7871635B2, “Use of compound that inactivates protein kinase A in a composition containing a cosmetically acceptable medium for lightening the skin” (Societe d'Exploitation de Produits pour les Industries …, priority 2002, dated 2011)
